Assay results published in patent publication US6426435B1, “Substantive water-soluble bis-quaternary salts of cinnamidoalkylamines” (Galaxy Surfactants Ltd., priority 2000, dated 2002).
Like-named read-outs stand apart in the source and are kept apart here.

Key:
[1] = UV absorption: molar extinction coefficient; assay type: physicochemical
Protocol: Ethyl p-methoxy cinnamate (206.0 g, 1.0 mole), […] (306.0 g, 3.0 mole) and sodium methoxide (2.0 g) were charged in a pressure reactor. The air inside the reactor was flushed out by purging of nitrogen. The reaction mixture was then stirred at 180° C. (this generated pressure of 18 kg/cm^2) for 36 hours. The progress of reaction was monitored by disappearance of ethyl p-methoxy cinnamate on chromatography (TLC and HPLC). The TLC was performed on aluminium coated silica gel plates (Merck-60-F-254) and viewed with a UV lamp at 254 nm. HPLC was performed using reversed phase technique on a C-18 bonded (octadecyl silane) column and 60% aqueous methanol as mobile phase (1.0 ml/min) and detection at 280 nm. The excess amine was removed under vacuum.

[2] = solid after removal of water
Protocol: For purposes of the present application, water-soluble compounds are defined as being soluble in water at levels above 15% w/w.
p-Methoxy cinnamidopropyldimethylamine (263.0 g, 1.0 mole) and bis-(2-dichloroethyl)ether (71.5 g, 0.5 mole) and deionised water (334.5 ml) were charged in a pressure reactor. The air inside was flushed out by purging nitrogen. The reaction mixture was then stirred at 115° C. (pressure 3 kg/cm^2) for 36 hours. The progress of the reaction was followed by analysing the chloride content.

[3] = Protocol: The major ingredients were mixed with heating to 50° C. until a uniform homogenous mixture was formed. The resulting mixture was then cooled to room temperature with continuous stirring. The required chelating agent, colour, perfume were added. The viscosity was adjusted to 2500 cps with sodium chloride.
The substantivity experiment was performed as described under;
All ingredients were heated together under stirring to 70° C. till the reaction mass became homogenous and transparent. The reaction mass was cooled to 40° C. and the required amounts of chelating agents, perfume and colour were added. The molten mass was cast in moulds of desired shape to yield transparent bathing bar.

[4] = remark: listed apart in the source
Protocol: Virgin hair (5.0 g) were washed with 10% SLES solution and rinsed with plain water. The tresses were treated for exactly 5.0 minutes with clear shampoo (containing 2% β,β′-di (p-methoxy cinnamidopropyldimethylammonium chloride) ethyl ether) as described in Example I that was diluted five times with water. After the treatment the tresses were washed thoroughly with copious amount of water. The adsorbed quaternary was extracted from the hair surface by immersing each tress in isopropanol at 65° C. for 30 minutes. A known volume of this isopropanol/quaternary ammonium salt mixture was analysed by UV-spectroscopy to determine its absorption intensity.

Row | molar extinction coefficient, ε ([1]; in methanol, at 290 nm, in M-1·cm-1 (unit assumed)) | SMILES | water solubility [2] [%] | molar extinction coefficient, ε [1] | molar extinction coefficient, ε ([1]; in aqueous solution at 292 nm λmax) | compatibility with anionic surfactant ([3]; transparent bathing bar of Example V, transparency unaffected) | compatibility with anionic surfactant ([3]; transparent shampoo of Example III (SLES-2)) | substantivity ([4]; clear shampoo of Example III containing 2% compound, diluted five times with water, 5.0 minutes treatment) | deposition of quaternary on cotton fabric (substantivity) ([4]; detergent powder of Example VII (2.0% compound)) | substantivity ([4]; transparent bathing bar of Example V (2.0% compound), procedure of Example III)
1 | 24,224 | COc1ccc(C=CC(=O)NCCCN(C)C)cc1 [p-Methoxy Cinnamidopropyldimethylamine] |  |  |  |  |  |  |  | 
2 |  | COc1ccc(C=CC(=O)NCCC[N+](C)(C)CCOCC[N+](C)(C)CCCNC(=O)C=Cc2ccc(OC)cc2)cc1.[Cl-].[Cl-] [β,β′-di(p-Methoxy Cinnamidopropyldimethylammonium Chloride) Ethyl Ether] | > 50 | 42,000 | 42,729 | total compatibility | completely compatible | 22 mg/100 g of hair | 21 mg/100 g of cotton fabric | 20 mg /100 g of hair
